Data: patent publication US8791048B2, “Herbicidal compositions comprising 4-amino-3-chloro-5-fluoro-6-(4-chloro-2-fluoro-3-methoxyphenyl) pyridine-2-carboxylic acid or a derivative thereof and clomazone” (Dow Agrosciences LLC, priority 2012, dated 2014)

Assays:
Assay type in all cases: in vivo
[1] = system: SCPMA Bolboschoenus maritimus (L.) Palla clubrush, sea; assay: In-water applied greenhouse trial, weed control in transplanted paddy rice
Description: (§1) Results in Examples I and II are greenhouse trial results.
(§2) Weed seeds or nutlets of the desired test plant species were planted in puddled soil (mud) prepared by mixing a shredded, non-sterilized mineral soil (50.5 percent silt, 25.5 percent clay, and 24 percent sand, with a pH of about 7.6 and an organic matter content of about 2.9 percent) and water at a 1:1 volumetric ratio. The prepared mud was dispensed in 365 mL aliquots into 16-ounce (oz.) non-perforated plastic pots with a surface area of 86.59 square centimeters (cm^2) leaving a headspace of 3 centimeters (cm) in each pot. Rice seeds were planted in Sun Gro MetroMix® 306 planting mixture, which typically has a pH of 6.0 to 6.8 and an organic matter content of about 30 percent, in plastic plug trays. Seedlings at the second or third leaf stage of growth were transplanted into 860 mL of mud contained in 32-oz. non-perforated plastic pots with a surface area of 86.59 cm^2 4 days prior to herbicide application. The paddy was created by filling the headspace of the pots with 2.5 to 3 cm of water. When required to ensure good germination and healthy plants, a fungicide treatment and/or other chemical or physical treatment was applied. The plants were grown for 4-22 days in a greenhouse with an approximate 14 h photoperiod which was maintained at about 29° C. during the day and about 26° C. during the night. Nutrients were added as Osmocote® (17:6:10, N:P:K+minor nutrients) at 2 g per 16-oz. pot and 4 g per 32-oz. pot. Water was added on a regular basis to maintain the paddy flood, and supplemental lighting was provided with overhead metal halide 1000-Watt lamps as necessary. The plants were employed for testing when they reached the first through fourth true leaf stage.
(§3) Treatments consisted of the acid or esters of 4-amino-3-chloro-5-fluoro-6-(4-chloro-2-fluoro-3-methoxy-phenyl)pyridine-2-carboxylic acid (compound A) each formulated as an SC (suspension concentrate) and various herbicidal components alone and in combination. Forms of compound A were applied on an acid equivalent basis.
(§4) Other herbicidal components were applied on an active ingredient basis and consisted of clomazone formulated as Command® 3ME.
(§5) Treatment requirements for each compound or herbicidal component were calculated based upon the rates being tested, the concentration of active ingredient or acid equivalent in the formulation, an application volume of 2 mL per component per pot, and an application area of 86.59 cm^2 per pot.
(§6) For formulated compounds, a measured amount was placed in an individual 100 or 200 mL glass vial and was dissolved in a volume of 1.25% (v/v) Agri-Dex® crop oil concentrate to obtain application solutions.
(§7) Applications were made by injecting appropriate amounts of the application solutions with a pipetter, individually and sequentially, into the aqueous layer of the paddy. Control plants were treated in the same manner with the solvent blank. Applications were made so that all treated plant material received the same concentrations of acetone and crop oil concentrate.
(§8) The treated plants and control plants were placed in a greenhouse as described above and water was added as needed to maintain a paddy flood. After approximately 3 weeks the condition of the test plants as compared with that of the untreated plants was determined visually and scored on a scale of 0 to 100 percent where 0 corresponds to no injury or growth inhibition and 100 corresponds to complete kill.
(§9) Colby's equation was used to determine the herbicidal effects expected from the mixtures (Colby, S. R. 1967. Calculation of the synergistic and antagonistic response of herbicide combinations. Weeds 15:20-22.).
(§10) The following equation was used to calculate the expected activity of mixtures containing two active ingredients, A and B: Expected=A+B−(A×B/100)
(§11) A=observed efficacy of active ingredient A at the same concentration as used in the mixture. […]

[2] = system: CYPDI Cyperus difformis L. sedge, smallflower umbrella; assay: as above
Description: as §1, §2, §3, §4, §5, §6, §7, §8, §9, §10, §11

[3] = system: CYPRO Cyperus rotundus L. nutsedge, purple; assay: as above
Description: as §1, §2, §3, §4, §5, §6, §7, §8, §9, §10, §11

[4] = system: ECHCO Echinochloa colona (L.) Link; junglerice; assay: Postemergence foliar-applied greenhouse trial, weed control in direct-seeded rice
Excerpt: as §1
(§12) Seeds or nutlets of the desired test plant species were planted in a soil matrix prepared by mixing a loam or sandy loam soil (e.g., 28.6 percent silt, 18.8 percent clay, and 52.6 percent sand, with a pH of about 5.8 and an organic matter content of about 1.8 percent) and calcareous grit in an 80 to 20 ratio. The soil matrix was contained in plastic pots with a volume of 1 quart and a surface area of 83.6 square centimeters (cm^2). When required to ensure good germination and healthy plants, a fungicide treatment and/or other chemical or physical treatment was applied. The plants were grown for 8-22 days in a greenhouse with an approximate 14 h photoperiod which was maintained at about 29° C. during the day and 26° C. during the night. Nutrients (Peters Excel® 15-5-15 5-Ca 2-Mg and iron chelate) were applied in the irrigation solution as needed and water was added on a regular basis. Supplemental lighting was provided with overhead metal halide 1000-Watt lamps as necessary. The plants were employed for testing when they reached the first through fourth true leaf stage.
as §3, with “(Compound A),” for “(compound A)”, “concentrate),” for “concentrate)”
(§13) Other herbicidal components were applied on an active ingredient basis and consisted of clomazone formulated as Command® 3ME. Treatment requirements were calculated based upon the rates being tested, the concentration of active ingredient or acid equivalent in the formulation, and a 12 mL application volume at a rate of 187 L/ha.
(§14) For treatments comprised of formulated compounds, measured amounts of compounds were placed individually in 25 mL glass vials and diluted in a volume of 1.25% (v/v) Agri-Dex® crop oil concentrated to obtain 12× stock solutions. […] Application solutions were prepared by adding an appropriate amount of each stock solution (e.g., 1 mL) and diluted to the appropriate final concentrations with the addition of 10 mL of an aqueous mixture of 1.25% (v/v) crop oil concentrate so that the final spray solutions contained 1.25+/−0.05% (v/v) crop oil concentrate.
(§15) All stock solutions and applications solutions were visually inspected for compound compatibility prior to application. Spray solutions were applied to the plant material with an overhead Mandel track sprayer equipped with a 8002E nozzles calibrated to deliver 187 L/ha over an application area of 0.503 m^2 at a spray height of 18 to 20 inches (46 to 50 cm) above average plant canopy height. Control plants were sprayed in the same manner with the solvent blank.
as §8, with “watered by sub-irrigation” for “water was added as needed”, “prevent wash-off of the test compounds.” for “maintain a paddy flood.”, “weeks,” for “weeks”
as §9, §10
(§16) A=observed efficacy of active ingredient A at the same concentration as used in the mixture.
(§17) B=observed efficacy of active ingredient B at the same concentration as used in the mixture.

[5] = system: IPOHE Ipomoea hederacea Jacq.; morningglory, ivyleaf; assay: as above
Excerpt: as §1, §12
as §3, with “(Compound A),” for “(compound A)”, “concentrate),” for “concentrate)”
as §13, §14, §15
as §8, with “watered by sub-irrigation” for “water was added as needed”, “prevent wash-off of the test compounds.” for “maintain a paddy flood.”, “weeks,” for “weeks”
as §9, §10, §16, §17

[6] = system: DIGSA Digitaria sanguinalis (L.) Scop.; crabgrass, large; assay: as above
Excerpt: as §1, §12
as §3, with “(Compound A),” for “(compound A)”, “concentrate),” for “concentrate)”
as §13, §14, §15
as §8, with “watered by sub-irrigation” for “water was added as needed”, “prevent wash-off of the test compounds.” for “maintain a paddy flood.”, “weeks,” for “weeks”
as §9, §10, §16, §17

[7] = system: LEFCH Leptochloa chinensis (L.) Nees; sprangletop, Chinese; assay: as above
Excerpt: as §1, §12
as §3, with “(Compound A),” for “(compound A)”, “concentrate),” for “concentrate)”
as §13, §14, §15
as §8, with “watered by sub-irrigation” for “water was added as needed”, “prevent wash-off of the test compounds.” for “maintain a paddy flood.”, “weeks,” for “weeks”
as §9, §10, §16, §17

[8] = system: ECHCG Echinochloa crus-galli (L.) Beauv.; barnyardgrass; assay: as above
Excerpt: as §1, §12
as §3, with “(Compound A),” for “(compound A)”, “concentrate),” for “concentrate)”
as §13, §14, §15
as §8, with “watered by sub-irrigation” for “water was added as needed”, “prevent wash-off of the test compounds.” for “maintain a paddy flood.”, “weeks,” for “weeks”
as §9, §10, §16, §17

[9] = Compound A Acid 0 gae/ha, Clomazone 448 gai/ha
[10] = Compound A Benzyl Ester 0 gae/ha, Clomazone 112 gai/ha
[11] = Compound A Acid 0 gae/ha, Clomazone 224 gai/ha
[12] = Compound A Acid 0 gae/ha, Clomazone 112 gai/ha
[13] = Compound A Benzyl Ester 0 gae/ha, Clomazone 56 gai/ha
[14] = Compound A Benzyl Ester 0 gae/ha, Clomazone 224 gai/ha
[15] = Compound A Acid 16 gae/ha, Clomazone 0 gai/ha
[16] = Compound A Acid 8.75 gae/ha, Clomazone 0 gai/ha
[17] = Compound A Acid 17.5 gae/ha, Clomazone 0 gai/ha
[18] = Compound A Acid 4.38 gae/ha, Clomazone 0 gai/ha
[19] = Compound A Benzyl Ester 4.38 gae/ha, Clomazone 0 gai/ha
[20] = Compound A Benzyl Ester 8 gae/ha, Clomazone 0 gai/ha
[21] = Compound A Benzyl Ester 16 gae/ha, Clomazone 0 gai/ha
[22] = Compound A Benzyl Ester 17.5 gae/ha, Clomazone 0 gai/ha
[23] = Compound A Benzyl Ester 32 gae/ha, Clomazone 0 gai/ha

CC1(C)CON(Cc2ccccc2Cl)C1=O [Clomazone, 2-[(2-chlorophenyl)methyl]-4,4-dimethyl-3-isoxazolidinone]
Visual Weed Control (%) - 22 DAA Obs [1, 9]: 25%
Visual Weed Control (%) - 21 DAA Obs [1, 10]: 0%
Visual Weed Control (%) - 19 DAA Obs ([1]; Compound A Benzyl Ester 0 gae/ha, Clomazone 670 gai/ha): 0%
Visual Weed Control (%) - 21 DAA Obs [2, 11]: 20%
Visual Weed Control (%) - 21 DAA Obs [2, 9]: 40%
Visual Weed Control (%) - 21 DAA Obs [3, 12]: 0%
Visual Weed Control (%) - 21 DAA Obs ([3]; Compound A Benzyl Ester 0 gae/ha, Clomazone 448 gai/ha): 0%
Visual Weed Control (%) - 19 DAA Obs [4, 13]: 10%
Visual Weed Control (%) - 19 DAA Obs [4, 10]: 10%
Visual Weed Control (%) - 19 DAA Obs [4, 14]: 10%
Visual Weed Control (%) - 19 DAA Obs [5, 12]: 20%
Visual Weed Control (%) - 19 DAA Obs [5, 11]: 20%
Visual Weed Control (%) - 19 DAA Obs ([6]; Compound A Acid 0 gae/ha, Clomazone 56 gai/ha): 0%
Visual Weed Control (%) - 19 DAA Obs [6, 12]: 0%
Visual Weed Control (%) - 19 DAA Obs [6, 11]: 0%
Visual Weed Control (%) - 19 DAA Obs ([7]; Table 1, Compound A Acid 0 gae/ha, Clomazone 56 gai/ha): 0%
Visual Weed Control (%) - 19 DAA Obs ([7]; Table 1, Compound A Acid 0 gae/ha, Clomazone 112 gai/ha): 0%
Visual Weed Control (%) - 19 DAA Obs ([7]; Table 1, Compound A Acid 0 gae/ha, Clomazone 224 gai/ha): 15%
Visual Weed Control (%) - 19 DAA Obs ([7]; Table 2, Compound A Benzyl Ester 0 gae/ha, Clomazone 56 gai/ha): 0%
Visual Weed Control (%) - 19 DAA Obs ([7]; Table 2, Compound A Benzyl Ester 0 gae/ha, Clomazone 112 gai/ha): 0%
Visual Weed Control (%) - 19 DAA Obs ([7]; Table 2, Compound A Benzyl Ester 0 gae/ha, Clomazone 224 gai/ha): 15%
Visual Weed Control (%) - 19 DAA Obs [8, 13]: 10%
Visual Weed Control (%) - 19 DAA Obs [8, 10]: 10%
Visual Weed Control (%) - 19 DAA Obs [8, 14]: 10%

COc1c(Cl)ccc(-c2nc(C(=O)O)c(Cl)c(N)c2F)c1F [Compound A Acid, 4-amino-3-chloro-6-(4-chloro-2-fluoro-3-methoxyphenyl)-5-fluoropyridine-2-carboxylic acid]
Visual Weed Control (%) - 22 DAA Obs [1, 15]: 0%
Visual Weed Control (%) - 22 DAA Obs ([1]; Compound A Acid 32 gae/ha, Clomazone 0 gai/ha): 0%
Visual Weed Control (%) - 22 DAA Obs ([1]; Compound A Acid 64 gae/ha, Clomazone 0 gai/ha): 30%
Visual Weed Control (%) - 21 DAA Obs [2, 15]: 30%
Visual Weed Control (%) - 21 DAA Obs [3, 16]: 0%
Visual Weed Control (%) - 21 DAA Obs [3, 17]: 30%
Visual Weed Control (%) - 21 DAA Obs ([3]; Compound A Acid 35 gae/ha, Clomazone 0 gai/ha): 85%
Visual Weed Control (%) - 19 DAA Obs [5, 18]: 0%
Visual Weed Control (%) - 19 DAA Obs [5, 16]: 10%
Visual Weed Control (%) - 19 DAA Obs [6, 18]: 30%
Visual Weed Control (%) - 19 DAA Obs [7, 17]: 55%

COc1c(Cl)ccc(-c2nc(C(=O)OCc3ccccc3)c(Cl)c(N)c2F)c1F [Compound A Benzyl Ester]
Visual Weed Control (%) - 21 DAA Obs [1, 19]: 0%
Visual Weed Control (%) - 19 DAA Obs [1, 20]: 0%
Visual Weed Control (%) - 21 DAA Obs ([1]; Compound A Benzyl Ester 8.75 gae/ha, Clomazone 0 gai/ha): 0%
Visual Weed Control (%) - 19 DAA Obs [1, 21]: 0%
Visual Weed Control (%) - 21 DAA Obs [1, 22]: 0%
Visual Weed Control (%) - 19 DAA Obs [1, 23]: 0%
Visual Weed Control (%) - 21 DAA Obs [3, 20]: 70%
Visual Weed Control (%) - 21 DAA Obs [3, 21]: 95%
Visual Weed Control (%) - 21 DAA Obs [3, 23]: 90%
Visual Weed Control (%) - 19 DAA Obs [4, 19]: 65%
Visual Weed Control (%) - 19 DAA Obs [7, 22]: 30%
Visual Weed Control (%) - 19 DAA Obs [8, 19]: 55%
